Source: PMC9963587 (Molecules, 2023)
“Also recorded” adds a separate entry of the source. Like-named read-outs stand apart in the source and are kept apart here.

Experiments:
in vitro = settings: human
[1] = test system: LASVpv (LASV pseudotyped virus bearing LASV GPC, Josiah strain); test: microbe, parasite or virus in culture; type: cell-based, Lassa virus
LASV GP2 = LASV GP2 (Lassa virus, UniProt P08669); test: biochemical; type: binding; settings: for kon: read-out: ka
[2] = test system: VSV pseudotyped lentivirus (VSVpv); type: cell-based, vesicular stomatitis virus
[3] = Mammarenavirus lassaense, HEK293, 48 h

Chain of LASV GP2 (P08669 260-491 limits assumed): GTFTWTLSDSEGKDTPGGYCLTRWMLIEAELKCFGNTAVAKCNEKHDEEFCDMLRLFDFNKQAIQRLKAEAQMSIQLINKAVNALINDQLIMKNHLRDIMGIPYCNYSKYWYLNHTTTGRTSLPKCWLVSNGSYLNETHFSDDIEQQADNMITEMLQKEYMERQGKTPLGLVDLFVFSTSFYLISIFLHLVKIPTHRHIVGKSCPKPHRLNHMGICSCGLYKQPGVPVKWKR

Compound | CC50 (in vitro) | melting point | IC50 [1, 3] | Kd (LASV GP2) | kd (LASV GP2) | kon (LASV GP2) | IC50 [1] | antiviral effect against VSVpv infection [2] | inhibition of LASVpv infection (EGFP expression) [1] | CC50 (HEK-293 cells) | ka (LASV GP2) | Kd (LASV GP2; read-out: KD) | IC50 ([1]; read-out: IC50)
CC(C)Oc1ccc(-n2cnc3cc(/C=C/c4ccc(C(C)(C)C)cc4)ccc32)cc1 [Compound 7a−E, (E)-5-(4-(tert-butyl)styryl)-1-(4-isopropoxyphenyl)-1H-benzo[d]imidazole] | > 100000 nM | 161 to 162 °C | > 50 nM |  |  |  |  |  |  |  |  |  | 
CC(C)Oc1ccc(-n2cnc3cc(/C=C\c4ccc(C(C)(C)C)cc4)ccc32)cc1 [Compound 7a−Z, (Z)-5-(4-(tert-butyl)styryl)-1-(4-isopropoxyphenyl)-1H-benzo[d]imidazole] | 3010 nM | 172 to 174 °C |  | 146 nM | 0.04 s⁻¹ | 328000 M⁻¹ s⁻¹ |  |  |  |  |  |  | 
CC(C)Oc1ccc(-n2cnc3cc(/C=C/c4ccc(C#N)cc4)ccc32)cc1 [Compound 7b−E, (E)-4-(2-(1-(4-isopropoxyphenyl)-1H-benzo[d]imidazol-5-yl)vinyl) benzonitrile] | > 100000 nM | 161 to 162 °C | > 50 nM |  |  |  |  |  |  |  |  |  | 
CC(C)Oc1ccc(-n2cnc3cc(/C=C\c4ccc(C#N)cc4)ccc32)cc1 [Compound 7b−Z, (Z)-4-(2-(1-(4-isopropoxyphenyl)-1H-benzo[d]imidazol-5-yl)vinyl) benzonitrile] | 23600 nM | 165 to 166 °C | > 50 nM | 73400 nM | 0.28 s⁻¹ | 3910 M⁻¹ s⁻¹ |  |  |  |  |  |  | 
Cc1ccc(/C=C/c2ccc3c(c2)ncn3-c2ccc(OC(C)C)cc2)cc1 [Compound 7c−E, (E)-1-(4-isopropoxyphenyl)-5-(4-methylstyryl)-1H-benzo[d]imidazole] | > 100000 nM | 168 to 170 °C | > 50 nM |  |  |  |  |  |  |  |  |  | 
Cc1ccc(/C=C\c2ccc3c(c2)ncn3-c2ccc(OC(C)C)cc2)cc1 [Compound 7c−Z, (Z)-1-(4-isopropoxyphenyl)-5-(4-methylstyryl)-1H-benzo[d]imidazole] | 20900 nM | 168 to 169 °C | 36.9 nM | 1180 nM | 0.07 s⁻¹ | 65600 M⁻¹ s⁻¹ |  |  |  |  |  |  | 
CCOc1ccc(/C=C/c2ccc3c(c2)ncn3-c2ccc(OC(C)C)cc2)cc1 [Compound 7d−E, (E)-5-(4-ethoxystyryl)-1-(4-isopropoxyphenyl)-1H-benzo[d]imidazole] | > 100000 nM | 152 to 153 °C | > 50 nM |  |  |  |  |  |  |  |  |  | 
CCOc1ccc(/C=C\c2ccc3c(c2)ncn3-c2ccc(OC(C)C)cc2)cc1 [Compound 7d−Z, (Z)-5-(4-ethoxystyryl)-1-(4-isopropoxyphenyl)-1H-benzo[d]imidazole] | 17000 nM | 161 to 162 °C | ≤ 15 nM | 307 nM | 0.02 s⁻¹ | 86500 M⁻¹ s⁻¹ | 13.6 nM |  |  |  |  |  | 
CC(C)Oc1ccc(-n2cnc3cc(/C=C/c4ccc(OC(F)F)cc4)ccc32)cc1 [Compound 7e−E, (E)-5-(4-(difluoromethoxy)styryl)-1-(4-isopropoxyphenyl)-1H-benzo[d]imidazole] | > 100000 nM | 173 to 174 °C | > 50 nM |  |  |  |  |  |  |  |  |  | 
CC(C)Oc1ccc(-n2cnc3cc(/C=C\c4ccc(OC(F)F)cc4)ccc32)cc1 [Compound 7e−Z, (Z)-5-(4-(difluoromethoxy)styryl)-1-(4-isopropoxyphenyl)-1H-benzo[d]imidazole] | 17900 nM | 173 to 174 °C | 34.4 nM | 1980 nM | 0.08 s⁻¹ | 43400 M⁻¹ s⁻¹ |  |  |  |  |  |  | 
CC(C)Oc1ccc(-n2cnc3cc(/C=C/c4ccc(OC(F)(F)F)cc4)ccc32)cc1 [Compound 7f−E, (E)-1-(4-isopropoxyphenyl)-5-(4-(trifluoromethoxy)styryl)-1H-benzo[d]imidazole] | > 100000 nM | 160 to 162 °C | > 50 nM |  |  |  |  |  |  |  |  |  | 
CC(C)Oc1ccc(-n2cnc3cc(/C=C\c4ccc(OC(F)(F)F)cc4)ccc32)cc1 [Compound 7f−Z, (Z)-1-(4-isopropoxyphenyl)-5-(4-(trifluoromethoxy)styryl)-1H-benzo[d]imidazole] | 9470 nM | 161 to 162 °C | 33.9 nM | 2190 nM | 0.03 s⁻¹ | 15600 M⁻¹ s⁻¹ |  |  |  |  |  |  | 
CC(C)Oc1ccc(-n2cnc3cc(/C=C/c4ccc(C(F)(F)F)cc4)ccc32)cc1 [Compound 7g−E, (E)-1-(4-isopropoxyphenyl)-5-(4-(trifluoromethyl)styryl)-1H-benzo[d]imidazole] | > 100000 nM | 166 to 167 °C | > 50 nM |  |  |  |  |  |  |  |  |  | 
CC(C)Oc1ccc(-n2cnc3cc(/C=C\c4ccc(C(F)(F)F)cc4)ccc32)cc1 [Compound 7g−Z, (Z)-1-(4-isopropoxyphenyl)-5-(4-(trifluoromethyl)styryl)-1H-benzo[d]imidazole] | 24400 nM | 165 to 166 °C | 29.1 nM | 2700 nM | 0.13 s⁻¹ |  |  |  |  |  |  |  | 
CC(C)Oc1ccc(-n2cnc3cc(/C=C/c4ccc5ccccc5c4)ccc32)cc1 [Compound 7h−E, (E)-1-(4-isopropoxyphenyl)-5-(2-(naphthalen-2-yl)vinyl)-1H-benzo[d]imidazole] | > 100000 nM | 172 to 173 °C | > 50 nM |  |  |  |  |  |  |  |  |  | 
CC(C)Oc1ccc(-n2cnc3cc(/C=C\c4ccc5ccccc5c4)ccc32)cc1 [Compound 7h−Z, (Z)-1-(4-isopropoxyphenyl)-5-(2-(naphthalene-2-yl)vinyl)-1H-benzo[d]imidazole] | 18900 nM | 170 to 171 °C | ≤ 15 nM | 129 nM | 0.03 s⁻¹ | 294000 M⁻¹ s⁻¹ | 7.58 nM |  |  |  |  |  | 
COc1ccc(-n2cnc3cc(NCc4ccc(OC)c(O)c4)ccc32)cc1 [Compound 13a, 2-methoxy-5-(((1-(4-methoxyphenyl)-1H-benzo[d]imidazol-5-yl)amino)methyl)phenol] | 62600 nM | 182.1 to 183.3 °C | 47.6 nM | 2780 nM | 0.03 s⁻¹ | 13200 M⁻¹ s⁻¹ |  |  |  |  |  |  | 
COc1ccc(-n2cnc3cc(NCc4ccc(O)c(OC)c4)ccc32)cc1 [Compound 13b, 2-methoxy-4-(((1-(4-methoxyphenyl)-1H-benzo[d]imidazol-5-yl)amino)methyl)phenol] | 87300 nM | 157.6 to 159 °C | 65.8 nM | 3930 nM | 0.20 s⁻¹ | 52300 M⁻¹ s⁻¹ |  |  |  |  |  |  | 
COc1ccc(-n2cnc3cc(NCc4cc(OC)c(OC)cc4OC)ccc32)cc1 [Compound 13d, 1-(4-methoxyphenyl)-N-(2,4,5-trimethoxybenzyl)-1H-benzo[d]imidazol-5-amine] | 135000 nM | 167.8 to 169.8 °C | 13.8 nM | 656 nM | 0.03 s⁻¹ | 56700 M⁻¹ s⁻¹ |  |  |  |  |  |  | 
COc1ccc(-n2cnc3cc(NCc4cc(OC)c(O)c(OC)c4)ccc32)cc1 [Compound 13e, 2,6-dimethoxy-4-(((1-(4-methoxyphenyl)-1H-benzo[d]imidazol-5-yl)amino)methyl)phenol] | 88800 nM | 115.7 to 118.1 °C | 50.5 nM | 4390 nM | 0.22 s⁻¹ | 50300 M⁻¹ s⁻¹ |  |  |  |  |  |  | 
COc1ccc(-n2cnc3cc(NCc4ccc(C(C)(C)C)cc4)ccc32)cc1 [Compound 13f, N-(4-(tert-butyl)benzyl)-1-(4-methoxyphenyl)-1H-benzo[d]imidazol-5-amine] | 102000 nM | 175.8 to 176.9 °C | 11.9 nM | 173 nM | 0.03 s⁻¹ | 178000 M⁻¹ s⁻¹ |  |  |  |  |  |  | 
COc1ccc(CNc2ccc3c(c2)ncn3-c2ccc(OC)cc2)cc1 [Compound 13g, N-(4-methoxybenzyl)-1-(4-methoxyphenyl)-1H-benzo[d]imidazol-5-amine] | 100000 nM | 128 to 129.3 °C | 55.4 nM | 4690 nM | 0.30 s⁻¹ | 65900 M⁻¹ s⁻¹ |  |  |  |  |  |  | 
COc1ccc(-n2cnc3cc(NCc4cccc(O)c4)ccc32)cc1 [Compound 13h, 3-(((1-(4-methoxyphenyl)-1H-benzo[d]imidazol-5-yl)amino)methyl)phenol] | 40300 nM | 182.9 to 184.3 °C | > 100 nM | 36000 nM | 0.42 s⁻¹ | 11900 M⁻¹ s⁻¹ |  |  |  |  |  |  | 
COc1ccc(-n2cnc3cc(NCc4ccc(Cl)c(Cl)c4)ccc32)cc1 [Compound 13i, N-(3,4-dichlorobenzyl)-1-(4-methoxyphenyl)-1H-benzo[d]imidazol-5-amine] | 81700 nM | 134.1 to 135.8 °C | 53.1 nM | 25400 nM | 0.49 s⁻¹ | 19400 M⁻¹ s⁻¹ |  |  |  |  |  |  | 
COc1ccc(-n2cnc3cc(NCc4ccc(C(F)(F)F)cc4)ccc32)cc1 [Compound 13j, 1-(4-methoxyphenyl)-N-(4-(trifluoromethyl)benzyl)-1H-benzo[d]imidazol-5-amine] | 109000 nM | 198.3 to 200.5 °C | 63.8 nM | 5490 nM | 0.04 s⁻¹ | 8530 M⁻¹ s⁻¹ |  |  |  |  |  |  | 
CC(C)Oc1ccc(-n2cnc3cc(/C=C\c4ccc(C(C)(C)O)cc4)ccc32)cc1 [LHF−535, reference compound] | 3680 nM |  | 3.04 nM | 114 nM | 0.03 s⁻¹ | 304000 M⁻¹ s⁻¹ |  | little or no effect; also recorded: did not exhibit an antiviral effect | concentration-dependent |  |  |  | 
COc1ccc(-n2cnc3cc(NCc4ccc(C(C)C)cc4)ccc32)cc1 [ST−193, reference compound] | 56300 nM |  | 44.5 nM | 200 nM | 0.01 s⁻¹ | 83200 M⁻¹ s⁻¹ |  |  |  |  |  |  | 
N-(2, 4-dimethoxybenzyl)-1-(4-methoxyphenyl)-1H-benzo[d]imidazol-5-amine [Compound 13c] |  |  |  |  | 0.03 s⁻¹ |  |  |  |  | 74200 nM | 39500 M⁻¹ s⁻¹ | 825 nM | 15.5 nM
